Source: US20240158446A1, “CYCLIC COMPOUND HAVING SELECTIVE INHIBITORY ACTION ON KRAS OVER HRAS AND NRAS” (CHUGAI SEIYAKU KABUSHIKI KAISHA, priority 2021, published 2024)

Assays:
[1] = target: GDP-bound NRAS wild-type protein (Homo sapiens, UniProt P01111); test: Binding to NRAS by surface plasmon resonance (SPR), Single Cycle Kinetics; details: for NRAS/KRAS (ratio of KD value with respect to GDP-bound NRAS wild-type protein to KD value with respect to KRAS): SPR KD ratio NRAS/KRAS, class symbols
GDP-bound NRAS wild-type protein, sequence (P01111 whole entry): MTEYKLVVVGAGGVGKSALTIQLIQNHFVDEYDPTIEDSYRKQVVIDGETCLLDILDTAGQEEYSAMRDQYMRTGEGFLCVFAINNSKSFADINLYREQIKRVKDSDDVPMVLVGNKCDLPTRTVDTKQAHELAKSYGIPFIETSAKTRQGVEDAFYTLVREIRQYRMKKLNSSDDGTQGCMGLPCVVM

[2] = target: GDP-bound HRAS wild-type protein (Homo sapiens, UniProt P01112); test: Binding to HRAS by surface plasmon resonance (SPR), Single Cycle Kinetics; details: for HRAS/KRAS (ratio of KD value with respect to GDP-bound HRAS wild-type protein to KD value with respect to KRAS): SPR KD ratio HRAS/KRAS, class symbols
GDP-bound HRAS wild-type protein, sequence (P01112 whole entry): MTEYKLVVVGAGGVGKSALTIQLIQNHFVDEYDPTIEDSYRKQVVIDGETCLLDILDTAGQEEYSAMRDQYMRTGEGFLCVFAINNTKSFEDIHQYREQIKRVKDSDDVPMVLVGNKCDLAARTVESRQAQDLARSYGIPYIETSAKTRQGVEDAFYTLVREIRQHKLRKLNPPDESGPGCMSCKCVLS

[3] = SPR, GDP-bound NRAS wild-type protein vs GDP-bound KRAS wild-type protein
[4] = SPR, GDP-bound HRAS wild-type protein vs GDP-bound KRAS wild-type protein

Structure (SMILES) | NRAS/KRAS (ratio of KD value for NRAS to KD value for KRAS) [1, 3] | HRAS/KRAS (ratio of KD value for HRAS to KD value for KRAS) [2, 4] | also measured
CCO[C@@H]1C[C@H]2C(=O)NC3(CCC3)C(=O)N(C)[C@@H](C3CCCC3)C(=O)N(C)[C@H](C(=O)N(C)C)CC(=O)N(C)[C@@H](CC)C(=O)N[C@@H]([C@@H](C)CC)C(=O)N3CCC[C@H]3C(=O)N(C)[C@H]3C/C=C\CCN(C3=O)[C@@H](Cc3ccc(C(F)(F)F)cc3)C(=O)N(C)CC(=O)N[C@@H](CCc3cc(F)c(C(F)(F)F)c(F)c3)C(=O)N2C1 [PP1056] | A (a compound having 10 or more and less than 20 is denoted as A) | A (a compound having 10 or more and less than 20 is denoted as A) | 
CC[C@H](C)[C@@H]1NC(=O)[C@H](CC(C)C)N(C)C(=O)C[C@@H](C(=O)N2CCOCC2)N(C)C(=O)[C@H](C2CCCC2)N(C)C(=O)C2(CCC2)NC(=O)[C@@H]2C[C@@H](O)CN2C(=O)[C@H](CCc2cc(F)c(C(F)(F)F)c(F)c2)NC(=O)CN(C)C(=O)[C@H](Cc2ccc(C(F)(F)F)cc2)N2CCCCC[C@@H](C2=O)N(C)C(=O)CN(C)C1=O [PP0871] | B (a compound having 3 or more and less than 10 is denoted as B) | B (a compound having 3 or more and less than 10 is denoted as B) | 
CCCOC[C@H]1C(=O)N[C@@H]([C@@H](C)CC)C(=O)N(C)CC(=O)N(C)[C@H]2C/C=C\CCN(C2=O)[C@@H](Cc2ccc(C)cc2)C(=O)N(C)CC(=O)N[C@@H](CCc2cc(F)c(C(F)(F)F)c(F)c2)C(=O)N2C[C@H](CC)C[C@H]2C(=O)NC2(CCCC2)C(=O)N(C)[C@@H](C2CCCC2)C(=O)N(C)[C@H](C(=O)N(C)C)CC(=O)N1C [PP2218] | A (a compound having 10 or more and less than 20 is denoted as A) | A (a compound having 10 or more and less than 20 is denoted as A) | 
CCO[C@@H]1C[C@H]2C(=O)NC3(CCC3)C(=O)N(C)[C@@H](C3CCCC3)C(=O)N(C)[C@H](C(=O)N(C)C)CC(=O)N(C)[C@@H](CC(C)C)C(=O)N[C@@H]([C@@H](C)CC)C(=O)N(C)CC(=O)N(C)[C@H]3CC(C)=CCN(C3=O)[C@@H](Cc3ccc(C(F)(F)F)cc3)C(=O)N(C)CC(=O)N[C@@H](CCc3cc(F)c(C(F)(F)F)c(F)c3)C(=O)N2C1 [PP1032] | C (A compound having a KD ratio of 0.1 or more and less than 3 is denoted as C) | C (A compound having a KD ratio of 0.1 or more and less than 3 is denoted as C) | 
CCO[C@@H]1C[C@H]2C(=O)NC3(CC(C)(C)C3)C(=O)N(C)[C@@H](C(CC)CC)C(=O)N(C)[C@H](C(=O)N(C)C)CC(=O)N(C)[C@@H](C(C)C)C(=O)N[C@@H]([C@@H](C)CC)C(=O)N(C)CC(=O)N(C)[C@H]3C/C=C\CCN(C3=O)[C@@H](Cc3ccc(C)cc3)C(=O)N(C)CC(=O)N[C@@H](CCc3ccc(C(F)(F)F)c(Cl)c3)C(=O)N2C1 [PP2158] | AA (a compound having 20 or more is denoted as AA) | A (a compound having 10 or more and less than 20 is denoted as A) | 
CCO[C@@H]1C[C@H]2C(=O)NC3(CCC3)C(=O)N(C)[C@@H](C(CC)CC)C(=O)N(C)[C@H](C(=O)N3CCOCC3)CC(=O)N(C)[C@@H](CC3CC3)C(=O)N[C@@H]([C@@H](C)CC)C(=O)N(C)CC(=O)N(C)[C@H]3C/C=C\CCN(C3=O)[C@@H](Cc3ccc(F)cc3)C(=O)N(C)CC(=O)N[C@@H](CCc3cc(F)c(C(F)(F)F)c(F)c3)C(=O)N2C1 [PP1527] |  |  | NRAS/KRAS (ratio of KD value for NRAS to KD value for KRAS) ([1]; SPR, GDP-bound NRAS wild-type protein vs GDP-bound KRAS wild-type protein, KD ratio class): A (a compound having 10 or more and less than 20 is denoted as A); HRAS/KRAS (ratio of KD value for HRAS to KD value for KRAS) ([2]; SPR, GDP-bound HRAS wild-type protein vs GDP-bound KRAS wild-type protein, KD ratio class): A (a compound having 10 or more and less than 20 is denoted as A)
CC[C@H](C)[C@@H]1NC(=O)[C@H](CC(C)C)N(C)C(=O)C[C@@H](C(=O)N2CCOCC2)N(C)C(=O)[C@H](C2CCCC2)N(C)C(=O)C2(CCC2)NC(=O)[C@@H]2[C@@H](OCC3CC3)CCN2C(=O)[C@H](CCc2cc(F)c(C(F)(F)F)c(F)c2)NC(=O)CN(C)C(=O)[C@H](Cc2ccc(C(F)(F)F)cc2)N2CCCCC[C@@H](C2=O)N(C)C(=O)CN(C)C1=O [PP1010] | B (a compound having 3 or more and less than 10 is denoted as B) | B (a compound having 3 or more and less than 10 is denoted as B) | 
CCC(CC)[C@H]1C(=O)N(C)[C@H](C(=O)N(C)C)CC(=O)N(C)[C@@H](COC)C(=O)N[C@@H]([C@@H](C)CC)C(=O)N(C)CC(=O)N(C)[C@H]2C/C=C\CCN(C2=O)[C@@H](Cc2ccc(C)cc2)C(=O)N(C)CC(=O)N[C@@H](CCc2cc(F)c(C(F)(F)F)c(F)c2)C(=O)N2CCCC[C@H]2C(=O)NC2(CC(C)(C)C2)C(=O)N1C [PP2922] |  |  | NRAS/KRAS (ratio of KD value with respect to GDP-bound NRAS wild-type protein to KD value with respect to KRAS) [1]: AA (a compound having 20 or more is denoted as AA); HRAS/KRAS (ratio of KD value with respect to GDP-bound HRAS wild-type protein to KD value with respect to KRAS) [2]: A (a compound having 10 or more and less than 20 is denoted as A)
CC[C@H](C)[C@@H]1NC(=O)[C@@H](CC(C)C)N(C)C(=O)C[C@@H](C(=O)N2CCOCC2)N(C)C(=O)[C@H](C2CCCC2)N(C)C(=O)C2(CCCC2)NC(=O)[C@@H]2CCCN2C(=O)[C@H](CCc2cc(F)c(C(F)(F)F)c(F)c2)NC(=O)CN(C)C(=O)[C@H](Cc2ccc(C(F)(F)F)cc2)N2CCCC[C@@H](C2=O)N(C)C(=O)CN(C)C1=O [PP0591] |  |  | NRAS/KRAS (ratio of KD value with respect to NRAS to KD value with respect to KRAS) [1, 3]: B (a compound having 3 or more and less than 10 is denoted as B); HRAS/KRAS (ratio of KD value with respect to HRAS to KD value with respect to KRAS) [2, 4]: B (a compound having 3 or more and less than 10 is denoted as B)
CCC[C@H]1C(=O)N[C@@H](C2CCOCC2)C(=O)N(C)CC(=O)N(C)[C@H]2C/C=C\CCN(C2=O)[C@@H](Cc2ccc(C)cc2)C(=O)N(C)CC(=O)N[C@@H](CCc2ccc(C(F)(F)F)c(Cl)c2)C(=O)N2C[C@H](OCC)C[C@H]2C(=O)NC2(CC(C)(C)C2)C(=O)N(C)[C@@H](C2CCCC2)C(=O)N(C)[C@H](C(=O)N(C)C)CC(=O)N1C [PP3002] | A (a compound having 10 or more and less than 20 is denoted as A) | A (a compound having 10 or more and less than 20 is denoted as A) | 
CCC[C@H]1C(=O)N[C@@H]([C@@H](C)CC)C(=O)N(C)CC(=O)N(C)[C@H]2C/C=C\CCN(C2=O)[C@@H](Cc2ccc(C)cc2)C(=O)N(C)CC(=O)N[C@@H](CCc2cc(F)c(C(F)(F)F)c(F)c2)C(=O)N2C[C@H](OCC)C[C@H]2C(=O)NC2(CC(C)(C)C2)C(=O)N(C)[C@@H](CC(C)C)C(=O)N(C)[C@H](C(=O)N(C)C)CC(=O)N1C [PP2995] | A (a compound having 10 or more and less than 20 is denoted as A) | A (a compound having 10 or more and less than 20 is denoted as A) | 
CCC[C@H]1C(=O)N[C@@H]([C@H](C)CC)C(=O)N(C)CC(=O)N(C)[C@H]2C/C=C\CCN(C2=O)[C@@H](Cc2ccc(C)cc2)C(=O)N(C)CC(=O)N[C@@H](CCc2ccc(C(F)(F)F)c(Cl)c2)C(=O)N2C[C@H](OCC)C[C@H]2C(=O)NC2(CC(C)(C)C2)C(=O)N(C)[C@@H](CC(C)(C)C)C(=O)N(C)[C@H](C(=O)N(C)C)CC(=O)N1C [PP2219] | A (a compound having 10 or more and less than 20 is denoted as A) | A (a compound having 10 or more and less than 20 is denoted as A) | 
CCO[C@@H]1C[C@H]2C(=O)NC3(CCC3)C(=O)N(C)[C@@H](C3CCCC3)C(=O)N(C)[C@H](C(=O)N(C)C)CC(=O)N(C)[C@@H](CC3CCCC3)C(=O)N[C@@H]([C@@H](C)CC)C(=O)N(C)CC(=O)N(C)[C@H]3C/C=C\CCN(C3=O)[C@@H](Cc3ccc(C)cc3)C(=O)N(C)CC(=O)N[C@@H](CCc3ccc(C4CC4)c(Cl)c3)C(=O)N2C1 [PP2684] |  |  | NRAS/KRAS (ratio of KD value with respect to GDP-bound NRAS wild-type protein to KD value with respect to KRAS) [1]: A (a compound having 10 or more and less than 20 is denoted as A); HRAS/KRAS (ratio of KD value with respect to GDP-bound HRAS wild-type protein to KD value with respect to KRAS) [2]: A (a compound having 10 or more and less than 20 is denoted as A)
CCO[C@@H]1C[C@H]2C(=O)NC3(CCC3)C(=O)N(C)[C@@H](C3CCCC3)C(=O)N(C)[C@H](C(=O)N(C)CC)CC(=O)N(C)[C@H]3CCCCCc4ccc(cc4)C[C@@H](C(=O)N(C)CC(=O)N[C@@H](CCc4cc(F)c(C(F)(F)F)c(F)c4)C(=O)N2C1)N1CC/C=C\C[C@@H](C1=O)N(C)C(=O)CN(C)C(=O)[C@H]([C@@H](C)CC)NC3=O (stereo in doubt) [PP2117] | A (a compound having 10 or more and less than 20 is denoted as A) | A (a compound having 10 or more and less than 20 is denoted as A) | 
CCOC[C@H]1C(=O)N[C@@H]([C@@H](C)CC)C(=O)N(C2CC2)CC(=O)N(C)[C@H]2C/C=C\CCN(C2=O)[C@@H](CC2CCC(F)(F)CC2)C(=O)N(C)CC(=O)N[C@@H](CCc2ccc(C(F)(F)F)c(OC)c2)C(=O)N2C[C@H](OCC)C[C@H]2C(=O)N(C)C2(CCC2)C(=O)N(C)[C@@H](C(CC)CC)C(=O)N(C)[C@H](C(=O)N(C)C)CC(=O)N1C [PP2351] | A (a compound having 10 or more and less than 20 is denoted as A) | A (a compound having 10 or more and less than 20 is denoted as A) | 
CCO[C@@H]1C[C@H]2C(=O)NC3(CC(C)(C)C3)C(=O)N(C)[C@@H](C3CCCC3)C(=O)N(C)[C@H](C(=O)N(C)C)CC(=O)N(C)[C@@H](CC(C)C)C(=O)N[C@@H]([C@@H](C)CC)C(=O)N(C)CC(=O)N(C)[C@H]3C/C=C\CCN(C3=O)[C@@H](Cc3ccc4c(c3)CCC4(F)F)C(=O)N(C)CC(=O)N[C@@H](CCc3ccc(C(F)(F)F)c(OC)c3)C(=O)N2C1 [PP2695] |  |  | NRAS/KRAS (ratio of KD value with respect to GDP-bound NRAS wild-type protein to KD value with respect to KRAS) [1]: A (a compound having 10 or more and less than 20 is denoted as A); HRAS/KRAS (ratio of KD value with respect to GDP-bound HRAS wild-type protein to KD value with respect to KRAS) [2]: B (a compound having 3 or more and less than 10 is denoted as B)
